# Reference: patent US8202879B2, “Quinazoline derivatives having tyrosine kinase inhibitory activity” (Shionogi & Co., Ltd., priority 2005, dated 2012)
# Where two headings read alike, the source gives them in different places.
# Assays:
# [1] = test system: BT-474; test: In vitro cell proliferation inhibition, WST assay; type: cell-based, human; conditions: BT-474 cells, cultured for 3 days, read-out: BT-474 (nM) proliferation inhibitory activity (IC50 value)
# Method: Test of In Vitro Cell Proliferation Inhibition of Test Compound
# As a human-derived cancer cell strain, BT-474 was used. Cells were all cultured in a 37° C., 5% CO2 incubator in a medium in which 10% bovine fetal serum (ICN) and 50 units ml penicillin/60 μg/ml streptomycin solution (GIBCO) were added to Dulbecco's Modified Essential Medium (DMEM, Nacalai Tesque, Inc).
# [2] = biological target: T1, EGFR (Homo sapiens, UniProt P00533); test: Enzyme inhibitory activity on EGFR (time resolution fluorescence, biotinylated poly-Glu-Tyr substrate); type: biochemical
# T1 construct: purchased Carna Biosciences, Inc; host or cells: insect cell expression system
# Summary of the method: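 Insect-cell-expressed EGFR phosphorylated biotinylated poly-Glu-Tyr (4:1) for 60 min at room temperature in TBS with MgCl2, MnCl2, Na3VO4 and BSA. Enzyme 250 ng/ml, substrate 3.125 μg/ml and ATP 125 μM as working solutions. EDTA stop; Eu anti-phosphotyrosine/streptavidin-XL time-resolved fluorescence read; 10-point 4-fold dilutions.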
# [3] = test system: NCI-N87 cells (human stomach cancer cell strain); test: in vivo anti-tumor assessment, NCI-N87 cells transplanted into mammary fat pad of nude mouse
# Method: NCI-N87 cells (human stomach cancer cell strain) were transplanted into a mammary fat pad of a female nude mouse (BALB/cA Jcl-nu/nu, CLEA Japan, Inc) at 5×10^6 cells/mouse (day 0). On day 5, a long diameter and a short diameter of a tumor were measured with a caliper, and mice were divided into groups (N=6) so that a tumor size between groups became equal. A test compound (20, 80 mg/kg) suspended in a 0.5% methylcellulose (MC) solution was orally administered from day 5 on for 15 consecutive days, and the anti-tumor effect was expressed by a ratio (T/C %) of an average value of a tumor size between a compound-administered group (T) and a control (C, 0.5% MC) group on day 20.
# Results of in vivo anti-tumor assessment of a compound VIII-11 are shown in Table 54, and results of in vivo anti-tumor assessment of a compound VIII-66 are shown in Table 55.
# [4] = biological target: T2, HER2 (Homo sapiens, UniProt P04626); test: Enzyme inhibitory activity on HER2 (time resolution fluorescence, biotinylated poly-Glu-Tyr substrate); type: biochemical
# T2 construct: purchased Carna Biosciences, Inc; host or cells: insect cell expression system
# Summary of the method: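 Insect-cell-expressed HER2 (1000 ng/ml working stock) with biotinylated poly-Glu-Tyr (4:1; 3.125 μg/ml stock) and ATP (290 μM solution) in TBS with MgCl2, MnCl2, Na3VO4 and BSA, 60 min at room temperature. 10-point 4-fold dilutions from a 1 mM top solution. Phosphotyrosine detected by TR-FRET with Eu-antibody and streptavidin-XL.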
# [5] = EGFR purified from insect cell expression system, ATP solution 125 μM, room temperature, 60 minutes
# [6] = day 5 (start of administration, grouping), 20 mg/kg administrated group, oral, N=6
# [7] = day 5 (start of administration, grouping), 80 mg/kg administrated group, oral, N=6
# [8] = day 20, 20 mg/kg orally for 15 consecutive days from day 5
# [9] = day 20, 80 mg/kg orally for 15 consecutive days from day 5
# [10] = HER2 purified from insect cell expression system, ATP solution 290 μM, room temperature, 60 minutes
# [11] = enzyme reaction at room temperature for 60 minutes
# T2 sequence (P04626 23-1255): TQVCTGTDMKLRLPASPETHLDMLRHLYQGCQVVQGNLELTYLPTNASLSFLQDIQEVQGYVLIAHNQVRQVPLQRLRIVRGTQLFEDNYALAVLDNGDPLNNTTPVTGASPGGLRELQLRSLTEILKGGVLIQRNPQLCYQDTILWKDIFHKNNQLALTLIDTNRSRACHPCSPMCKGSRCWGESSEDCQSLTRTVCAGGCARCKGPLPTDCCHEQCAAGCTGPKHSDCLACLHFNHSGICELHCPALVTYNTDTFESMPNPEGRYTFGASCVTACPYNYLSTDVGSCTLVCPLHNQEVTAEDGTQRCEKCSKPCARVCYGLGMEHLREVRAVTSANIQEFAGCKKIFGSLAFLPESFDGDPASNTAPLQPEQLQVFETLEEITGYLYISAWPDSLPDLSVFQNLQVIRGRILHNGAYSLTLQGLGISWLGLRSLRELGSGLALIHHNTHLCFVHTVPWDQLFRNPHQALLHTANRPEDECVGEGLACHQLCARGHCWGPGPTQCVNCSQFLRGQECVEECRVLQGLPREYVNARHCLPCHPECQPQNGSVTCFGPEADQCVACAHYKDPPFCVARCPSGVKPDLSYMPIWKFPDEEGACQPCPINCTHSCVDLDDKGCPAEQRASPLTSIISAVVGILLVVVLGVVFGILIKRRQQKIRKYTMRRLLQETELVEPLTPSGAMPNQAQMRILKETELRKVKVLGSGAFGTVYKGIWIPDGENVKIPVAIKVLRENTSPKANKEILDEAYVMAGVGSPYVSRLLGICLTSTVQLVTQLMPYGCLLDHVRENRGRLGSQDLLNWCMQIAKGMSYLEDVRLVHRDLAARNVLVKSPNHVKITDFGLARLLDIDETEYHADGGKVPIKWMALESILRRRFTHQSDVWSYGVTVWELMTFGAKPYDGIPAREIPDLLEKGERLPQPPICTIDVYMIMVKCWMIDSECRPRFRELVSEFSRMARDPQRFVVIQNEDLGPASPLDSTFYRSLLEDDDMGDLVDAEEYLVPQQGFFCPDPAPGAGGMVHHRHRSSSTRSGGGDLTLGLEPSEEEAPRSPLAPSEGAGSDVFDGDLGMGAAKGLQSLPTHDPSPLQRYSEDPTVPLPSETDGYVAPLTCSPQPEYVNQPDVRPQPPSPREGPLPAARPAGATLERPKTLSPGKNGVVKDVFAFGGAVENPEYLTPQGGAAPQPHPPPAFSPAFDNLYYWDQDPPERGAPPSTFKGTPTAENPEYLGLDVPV
# T1 sequence (P00533 25-1210): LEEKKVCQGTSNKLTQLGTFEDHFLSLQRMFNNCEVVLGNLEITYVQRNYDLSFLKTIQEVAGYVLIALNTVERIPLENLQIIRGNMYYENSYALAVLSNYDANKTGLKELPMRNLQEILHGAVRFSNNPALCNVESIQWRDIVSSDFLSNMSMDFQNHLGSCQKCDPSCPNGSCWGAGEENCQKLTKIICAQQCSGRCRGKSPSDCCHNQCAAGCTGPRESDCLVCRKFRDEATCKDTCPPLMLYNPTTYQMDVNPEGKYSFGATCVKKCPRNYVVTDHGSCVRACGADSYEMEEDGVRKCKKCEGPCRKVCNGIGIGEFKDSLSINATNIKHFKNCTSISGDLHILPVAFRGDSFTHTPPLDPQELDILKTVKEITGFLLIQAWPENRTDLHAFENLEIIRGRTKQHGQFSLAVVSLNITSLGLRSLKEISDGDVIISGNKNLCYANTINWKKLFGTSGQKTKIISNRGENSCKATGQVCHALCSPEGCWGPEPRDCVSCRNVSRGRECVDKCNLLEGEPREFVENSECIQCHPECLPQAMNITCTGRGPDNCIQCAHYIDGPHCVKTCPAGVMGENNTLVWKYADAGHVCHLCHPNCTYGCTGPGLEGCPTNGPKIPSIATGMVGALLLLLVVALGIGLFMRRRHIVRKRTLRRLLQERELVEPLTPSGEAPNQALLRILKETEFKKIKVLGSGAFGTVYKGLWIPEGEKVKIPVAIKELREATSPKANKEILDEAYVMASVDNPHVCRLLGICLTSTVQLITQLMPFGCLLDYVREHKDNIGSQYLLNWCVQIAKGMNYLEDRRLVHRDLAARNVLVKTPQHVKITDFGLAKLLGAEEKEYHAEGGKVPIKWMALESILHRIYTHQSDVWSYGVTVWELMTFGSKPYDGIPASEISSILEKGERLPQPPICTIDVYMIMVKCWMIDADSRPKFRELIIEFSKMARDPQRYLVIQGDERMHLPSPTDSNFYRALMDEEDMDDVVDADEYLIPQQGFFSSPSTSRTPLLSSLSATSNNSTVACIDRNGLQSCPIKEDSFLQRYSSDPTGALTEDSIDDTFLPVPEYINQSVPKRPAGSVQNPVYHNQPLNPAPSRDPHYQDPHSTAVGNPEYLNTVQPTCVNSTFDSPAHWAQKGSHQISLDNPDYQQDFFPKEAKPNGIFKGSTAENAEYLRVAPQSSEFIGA
"IC50 ([1]; Homo sapiens, BT-474, 72 h) [nM]","IC50 [2, 11] [nM]","IC50 [4, 11] [nM]",SMILES,further results
26,–,–,CC#C/C(=N\OCCN1CCCC1)c1ccc2ncnc(Nc3ccc(OCc4cccc(F)c4)c(Cl)c3)c2c1 [VIII-11],"IC50 [2, 5]: 43 nM; Mean of tumor size [3, 6]: 197 mm^3; Mean of tumor size [3, 7]: 197 mm^3; Mean of tumor size [3, 8]: 356 mm^3; T/C % (ratio of average tumor size, compound-administered group vs control group) [3, 8]: 54%; Mean of tumor size [3, 9]: 193 mm^3; T/C % (ratio of average tumor size, compound-administered group vs control group) [3, 9]: 29%; IC50 [4, 10]: 45 nM"
–,–,–,CC#C/C(=N\OCCN(C)CCO)c1ccc2ncnc(Nc3ccc(OCc4cccc(F)c4)c(Cl)c3)c2c1.Cl.Cl [VIII-66],"IC50 [1]: 8 nM; IC50 [2, 5]: 27 nM; Mean of tumor size [3, 6]: 134 mm^3; Mean of tumor size [3, 7]: 150 mm^3; Mean of tumor size [3, 8]: 154 mm^3; T/C % (ratio of average tumor size, compound-administered group vs control group) [3, 8]: 32%; Mean of tumor size [3, 9]: 17 mm^3; T/C % (ratio of average tumor size, compound-administered group vs control group) [3, 9]: 4%; IC50 [4, 10]: 43 nM"
31,17,13,CC#C/C(=N\OC[C@@H](COC)NC)c1ccc2ncnc(Nc3ccc(S(=O)(=O)c4ccccc4)cc3)c2c1 [VIII-205],–
68,21,17,CC#C/C(=N\OC[C@@H]1COCCN1)c1ccc2ncnc(Nc3ccc(S(=O)(=O)c4ccccc4)cc3)c2c1 [VIII-207],–
27,28,23,CNCCO/N=C(\C#CCOC)c1ccc2ncnc(Nc3ccc(S(=O)(=O)c4ccccc4)cc3)c2c1 [VIII-208],–
19,38,30,COCC#C/C(=N\OC[C@@H]1COCCN1)c1ccc2ncnc(Nc3ccc(S(=O)(=O)c4ccccc4)cc3)c2c1 [VIII-209],–
31,42,14,CC#C/C(=N\OCCNC)c1ccc2ncnc(Nc3ccc(Oc4ccc(C)nc4)c(C)c3)c2c1 [VIII-210],–
16,23,18,CC#C/C(=N\OCCNC)c1ccc2ncnc(Nc3ccc(COc4cccc(F)c4)c(Cl)c3)c2c1 [VIII-211],–
33,18,25,CC#C/C(=N\OCCNC)c1ccc2ncnc(Nc3ccc(Sc4ccccc4)cc3)c2c1 [VIII-213],–
25,4.5,3.3,CC#C/C(=N\OCCNC)c1ccc2ncnc(Nc3ccc(S(=O)(=O)c4ccccc4)cc3)c2c1 [VIII-214],–
32,22,7,CC#C/C(=N\OCCNC)c1ccc2ncnc(Nc3ccc(OCc4cccnc4)c(Cl)c3)c2c1 [VIII-216],–
41,76,22,CC#C/C(=N\OCC1COCCN1)c1ccc2ncnc(Nc3ccc(Oc4ccc(C)nc4)c(C)c3)c2c1 (stereo not drawn) [VIII-218],–
45,26,20,CC#C/C(=N\OCC1COCCN1)c1ccc2ncnc(Nc3ccc(S(=O)(=O)c4ccccc4)cc3)c2c1 (stereo not drawn) [VIII-219],–
23,263,449,CC#C/C(=N\OCC1COCCN1)c1ccc2ncnc(Nc3ccc(COc4cccc(F)c4)c(Cl)c3)c2c1 (stereo not drawn) [VIII-220],–
–,143,168,CC#C/C(=N\OCC1COCCN1)c1ccc2ncnc(Nc3ccc(COc4cccc(F)c4)c(Cl)c3)c2c1 (stereo not drawn) [VIII-221],IC50 [1]: 15 nM
6,253,217,CC#C/C(=N\OCC(N)=O)c1ccc2ncnc(Nc3ccc(OCc4cccc(F)c4)c(Cl)c3)c2c1 [VIII-223],–
1.2,122,118,CC#C/C(=N\OCC(=O)NCCO)c1ccc2ncnc(Nc3ccc(OCc4cccc(F)c4)c(Cl)c3)c2c1 [VIII-224],–
7,47,70,CC#C/C(=N\OCC(=O)NCCOS(C)(=O)=O)c1ccc2ncnc(Nc3ccc(OCc4cccc(F)c4)c(Cl)c3)c2c1 [VIII-225],–
5,20,10,CC#C/C(=N\OCC(=O)NCCN(C)C)c1ccc2ncnc(Nc3ccc(OCc4cccc(F)c4)c(Cl)c3)c2c1 [VIII-226],–
